Measurements published in patent publication US9493455B2, “Azaindole derivatives as inhibitors of protein kinases” (ORIBASE PHARMA, priority 2012, dated 2016).

Tests used:
BRAF = target: T1, BRAF (Homo sapiens, UniProt P15056); assay: In vitro kinase assay (Z′-LYTE); assay type: biochemical; conditions: compound 100 nM; ATP 100 μM; read-out: % of inhibition of the kinase compared to the control
T1 construct: purchased Invitrogen
Outline: (§1)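 Z′-LYTE FRET peptide-cleavage assay, emission ratio after 400 nm excitation; compound tested at 100 nM in 1% DMSO final. Kinase buffer 50 mM HEPES pH 7.5, 0.01% BRIJ-35, 10 mM MgCl2, 1 mM EGTA, ATP at previously determined apparent Km; read as percent inhibition.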

EGFR (ErbB1) = target: T2, EGFR (ErbB1) (Homo sapiens, UniProt P00533); assay: In vitro kinase assay (Z′-LYTE); assay type: biochemical; conditions: read-out: % of inhibition of the kinase compared to the control
T2 construct: purchased Invitrogen
T2 sequence (P00533 25-1210): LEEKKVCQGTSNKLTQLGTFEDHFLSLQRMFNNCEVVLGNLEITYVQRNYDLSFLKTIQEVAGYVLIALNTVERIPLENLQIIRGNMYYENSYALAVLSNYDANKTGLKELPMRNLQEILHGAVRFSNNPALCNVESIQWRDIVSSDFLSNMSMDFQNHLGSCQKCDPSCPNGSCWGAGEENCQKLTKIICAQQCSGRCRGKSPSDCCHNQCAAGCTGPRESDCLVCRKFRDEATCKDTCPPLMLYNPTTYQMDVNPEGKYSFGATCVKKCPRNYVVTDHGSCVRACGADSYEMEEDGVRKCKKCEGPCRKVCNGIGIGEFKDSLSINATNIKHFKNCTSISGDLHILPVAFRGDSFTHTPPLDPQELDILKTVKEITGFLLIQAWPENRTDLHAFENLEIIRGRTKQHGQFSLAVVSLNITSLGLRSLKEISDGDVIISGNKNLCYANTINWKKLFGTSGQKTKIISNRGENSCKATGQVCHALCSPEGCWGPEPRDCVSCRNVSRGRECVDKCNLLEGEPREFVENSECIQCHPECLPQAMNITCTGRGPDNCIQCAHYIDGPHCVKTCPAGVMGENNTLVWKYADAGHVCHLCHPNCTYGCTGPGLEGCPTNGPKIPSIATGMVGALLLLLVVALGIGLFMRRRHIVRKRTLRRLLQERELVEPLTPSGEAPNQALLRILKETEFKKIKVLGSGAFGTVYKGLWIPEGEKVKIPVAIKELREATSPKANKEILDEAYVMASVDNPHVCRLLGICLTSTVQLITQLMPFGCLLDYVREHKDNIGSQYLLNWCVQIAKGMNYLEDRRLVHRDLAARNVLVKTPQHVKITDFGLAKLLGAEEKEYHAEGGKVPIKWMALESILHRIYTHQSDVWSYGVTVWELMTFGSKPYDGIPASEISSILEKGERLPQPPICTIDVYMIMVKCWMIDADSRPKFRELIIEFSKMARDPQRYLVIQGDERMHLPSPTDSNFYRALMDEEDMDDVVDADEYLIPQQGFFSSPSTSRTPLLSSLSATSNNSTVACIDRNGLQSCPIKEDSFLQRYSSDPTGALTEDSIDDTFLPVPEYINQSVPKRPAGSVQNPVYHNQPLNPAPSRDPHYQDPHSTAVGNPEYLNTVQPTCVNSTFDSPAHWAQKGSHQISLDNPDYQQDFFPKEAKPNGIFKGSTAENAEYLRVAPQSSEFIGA
Outline: as §1

EGFR (ErbB1) T790M L858R = target: T3, EGFR (ErbB1) T790M L858R (Homo sapiens, UniProt P00533, L858R/T790M); assay: In vitro kinase assay (Z′-LYTE); assay type: biochemical; conditions: read-out: % of inhibition of the kinase compared to the control
T3 construct: purchased Invitrogen
Outline: as §1

FGFR2 = target: T4, FGFR2 (Homo sapiens, UniProt P21802); assay: In vitro kinase assay (Z′-LYTE); assay type: biochemical; conditions: read-out: % of inhibition of the kinase compared to the control
T4 construct: purchased Invitrogen
T4 sequence (P21802 22-821): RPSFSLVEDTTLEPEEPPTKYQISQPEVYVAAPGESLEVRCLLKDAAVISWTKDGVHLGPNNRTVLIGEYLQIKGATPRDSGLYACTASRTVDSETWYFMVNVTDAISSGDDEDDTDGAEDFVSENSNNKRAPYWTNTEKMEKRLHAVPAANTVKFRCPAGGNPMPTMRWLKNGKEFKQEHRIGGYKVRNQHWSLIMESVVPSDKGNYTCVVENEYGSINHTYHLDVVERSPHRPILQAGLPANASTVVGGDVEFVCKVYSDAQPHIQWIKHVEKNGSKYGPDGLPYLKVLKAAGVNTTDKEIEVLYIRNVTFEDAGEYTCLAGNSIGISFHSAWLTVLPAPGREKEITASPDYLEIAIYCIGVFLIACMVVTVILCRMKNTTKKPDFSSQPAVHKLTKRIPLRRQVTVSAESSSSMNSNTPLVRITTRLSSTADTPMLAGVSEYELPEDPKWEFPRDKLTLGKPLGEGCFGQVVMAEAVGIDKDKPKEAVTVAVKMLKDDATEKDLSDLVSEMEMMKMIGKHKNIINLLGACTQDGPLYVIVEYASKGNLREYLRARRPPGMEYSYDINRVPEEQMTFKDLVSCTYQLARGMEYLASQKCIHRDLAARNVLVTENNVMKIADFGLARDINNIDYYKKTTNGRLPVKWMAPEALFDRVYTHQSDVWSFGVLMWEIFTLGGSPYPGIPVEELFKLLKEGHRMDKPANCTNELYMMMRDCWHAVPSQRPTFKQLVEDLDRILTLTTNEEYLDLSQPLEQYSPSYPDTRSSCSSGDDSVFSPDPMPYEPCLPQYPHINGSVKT
Outline: as §1

KDR (VEGFR2) = target: T5, KDR (VEGFR2) (Homo sapiens, UniProt P35968); assay: In vitro kinase assay (Z′-LYTE); assay type: biochemical; conditions: read-out: % of inhibition of the kinase compared to the control
T5 construct: purchased Invitrogen
T5 sequence (P35968 20-1356): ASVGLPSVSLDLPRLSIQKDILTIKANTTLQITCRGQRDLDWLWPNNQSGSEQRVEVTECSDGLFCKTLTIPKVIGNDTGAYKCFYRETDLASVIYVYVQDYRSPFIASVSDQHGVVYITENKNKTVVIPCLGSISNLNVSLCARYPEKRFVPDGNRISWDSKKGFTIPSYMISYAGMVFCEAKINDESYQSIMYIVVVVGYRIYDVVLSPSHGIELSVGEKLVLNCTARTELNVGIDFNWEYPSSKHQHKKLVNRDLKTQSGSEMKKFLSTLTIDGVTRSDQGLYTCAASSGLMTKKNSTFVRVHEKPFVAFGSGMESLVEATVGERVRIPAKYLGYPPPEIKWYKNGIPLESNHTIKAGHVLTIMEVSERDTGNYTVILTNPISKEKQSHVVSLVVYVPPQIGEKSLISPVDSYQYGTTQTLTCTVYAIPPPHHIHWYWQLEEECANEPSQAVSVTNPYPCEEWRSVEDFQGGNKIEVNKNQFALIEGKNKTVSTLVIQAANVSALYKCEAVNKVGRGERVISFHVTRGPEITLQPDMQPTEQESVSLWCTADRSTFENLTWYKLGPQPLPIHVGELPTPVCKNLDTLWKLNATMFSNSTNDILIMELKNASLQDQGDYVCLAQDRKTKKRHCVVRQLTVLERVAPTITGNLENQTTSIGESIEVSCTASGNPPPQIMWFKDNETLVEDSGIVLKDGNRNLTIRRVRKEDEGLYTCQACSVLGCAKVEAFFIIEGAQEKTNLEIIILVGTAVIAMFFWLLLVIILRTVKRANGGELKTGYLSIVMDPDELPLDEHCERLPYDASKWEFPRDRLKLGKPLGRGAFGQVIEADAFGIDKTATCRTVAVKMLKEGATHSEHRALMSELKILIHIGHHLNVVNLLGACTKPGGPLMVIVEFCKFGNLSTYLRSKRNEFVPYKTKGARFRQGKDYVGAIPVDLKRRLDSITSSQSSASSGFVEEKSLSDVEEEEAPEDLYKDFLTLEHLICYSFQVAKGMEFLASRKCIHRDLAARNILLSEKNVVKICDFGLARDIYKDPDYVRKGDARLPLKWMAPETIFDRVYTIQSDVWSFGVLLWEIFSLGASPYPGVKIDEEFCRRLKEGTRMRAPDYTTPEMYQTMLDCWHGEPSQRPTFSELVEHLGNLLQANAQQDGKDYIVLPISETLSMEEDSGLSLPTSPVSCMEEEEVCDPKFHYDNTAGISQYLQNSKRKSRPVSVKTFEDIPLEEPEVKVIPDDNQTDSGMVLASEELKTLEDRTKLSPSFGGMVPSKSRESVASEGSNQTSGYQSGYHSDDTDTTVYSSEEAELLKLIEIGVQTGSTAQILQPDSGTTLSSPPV
Outline: as §1

PDGFRA (PDGFR alpha) = target: T6, PDGFRA (PDGFR alpha) (Homo sapiens, UniProt P16234); assay: In vitro kinase assay (Z′-LYTE); assay type: biochemical; conditions: read-out: % of inhibition of the kinase compared to the control
T6 construct: purchased Invitrogen
T6 sequence (P16234 24-1089): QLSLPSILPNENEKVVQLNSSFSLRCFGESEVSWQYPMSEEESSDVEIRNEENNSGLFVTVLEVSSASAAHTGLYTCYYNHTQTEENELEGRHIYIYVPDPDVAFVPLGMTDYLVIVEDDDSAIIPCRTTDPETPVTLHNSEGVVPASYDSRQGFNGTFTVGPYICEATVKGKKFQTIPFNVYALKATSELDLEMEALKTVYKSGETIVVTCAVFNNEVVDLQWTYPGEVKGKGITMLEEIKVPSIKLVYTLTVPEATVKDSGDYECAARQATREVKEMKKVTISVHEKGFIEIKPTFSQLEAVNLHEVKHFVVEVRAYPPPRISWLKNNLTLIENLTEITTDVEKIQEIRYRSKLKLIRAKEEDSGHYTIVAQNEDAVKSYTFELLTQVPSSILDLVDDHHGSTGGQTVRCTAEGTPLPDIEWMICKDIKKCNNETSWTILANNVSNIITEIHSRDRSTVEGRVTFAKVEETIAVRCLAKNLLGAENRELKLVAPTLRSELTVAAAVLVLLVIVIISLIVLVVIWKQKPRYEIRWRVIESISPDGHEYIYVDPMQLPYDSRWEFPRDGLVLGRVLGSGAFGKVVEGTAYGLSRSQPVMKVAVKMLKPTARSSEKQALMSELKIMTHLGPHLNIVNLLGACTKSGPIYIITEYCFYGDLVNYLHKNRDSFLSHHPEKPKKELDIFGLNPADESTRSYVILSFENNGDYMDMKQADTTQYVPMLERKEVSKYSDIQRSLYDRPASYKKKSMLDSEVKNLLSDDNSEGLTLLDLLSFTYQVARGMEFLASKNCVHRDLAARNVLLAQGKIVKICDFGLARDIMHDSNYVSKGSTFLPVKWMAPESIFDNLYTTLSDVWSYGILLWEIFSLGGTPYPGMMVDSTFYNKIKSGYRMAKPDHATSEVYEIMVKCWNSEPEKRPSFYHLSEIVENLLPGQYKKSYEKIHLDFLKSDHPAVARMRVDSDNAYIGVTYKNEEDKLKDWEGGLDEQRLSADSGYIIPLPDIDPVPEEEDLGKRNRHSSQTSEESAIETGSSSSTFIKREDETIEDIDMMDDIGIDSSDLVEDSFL
Outline: as §1

SRC = target: T7, SRC (Homo sapiens, UniProt P12931); assay: In vitro kinase assay (Z′-LYTE); assay type: biochemical; conditions: read-out: % of inhibition of the kinase compared to the control
T7 construct: purchased Invitrogen
T7 sequence (P12931 whole entry): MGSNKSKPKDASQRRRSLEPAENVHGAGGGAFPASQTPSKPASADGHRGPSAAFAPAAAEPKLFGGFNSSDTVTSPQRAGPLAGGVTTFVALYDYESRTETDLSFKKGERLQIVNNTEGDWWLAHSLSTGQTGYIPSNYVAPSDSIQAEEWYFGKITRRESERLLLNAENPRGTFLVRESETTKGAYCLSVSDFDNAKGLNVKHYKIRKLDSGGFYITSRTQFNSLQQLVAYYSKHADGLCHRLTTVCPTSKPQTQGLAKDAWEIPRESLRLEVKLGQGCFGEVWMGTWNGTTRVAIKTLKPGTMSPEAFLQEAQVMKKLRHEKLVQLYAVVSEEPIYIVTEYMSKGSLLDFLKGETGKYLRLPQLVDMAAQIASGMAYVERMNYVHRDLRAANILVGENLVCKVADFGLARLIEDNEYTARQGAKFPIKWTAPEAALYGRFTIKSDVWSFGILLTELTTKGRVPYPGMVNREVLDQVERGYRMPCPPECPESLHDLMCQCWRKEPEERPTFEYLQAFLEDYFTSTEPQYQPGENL
Outline: as §1

A549 = assay: In vitro cell proliferation assay (MTT); assay type: cell-based; conditions: Homo sapiens, A549, 72 h
Outline: (§2)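 MTT read-out of proliferation after 72 hr compound exposure; 5×10^3 cells/well, duplicate wells, dose range 10 nM–3 μM.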

H1975 = assay: In vitro cell proliferation assay (MTT); assay type: cell-based; conditions: Homo sapiens, NCI-H1975, 72 h
Outline: as §2

HRMEC = assay: In vitro cell proliferation assay (MTT); assay type: cell-based; conditions: 72 h
Outline: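 Cells were seeded at 5×10^3 per well and exposed in duplicate to escalating compound concentrations from 10 nM to 3 μM for 72 hr. Proliferation was then measured by MTT reduction.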

HT29 = assay: In vitro cell proliferation assay (MTT); assay type: cell-based; conditions: Homo sapiens, HT-29, 72 h
Outline: as §2

HUVEC = assay: In vitro cell proliferation assay (MTT); assay type: cell-based; conditions: Homo sapiens, 72 h
Experimental: Cancer cell lines (5×10^3 cells per well) or HUVEC (1×10^4 cells per well) or HRMEC (1×10^4 cells per well) were distributed in 96-well plates and incubating in duplicate with escalating concentrations (10 nM to 3 μM) of compounds for 72 hr. Cell proliferation was measured using MTT (3 [4,5-dimethylthiazol-2-yl]-2,5-diphenyltetrazolium bromide).

HeLa = assay: In vitro cell proliferation assay (MTT); assay type: cell-based; conditions: Homo sapiens, 72 h
Outline: as §2

HepG2 = assay: In vitro cell proliferation assay (MTT); assay type: cell-based; conditions: Homo sapiens, HepG2, 72 h
Outline: as §2

HuCCT1 = assay: In vitro cell proliferation assay (MTT); assay type: cell-based; conditions: Homo sapiens, HuCCT-1, 72 h
Outline: as §2

HuH6 Clone 5 = assay: In vitro cell proliferation assay (MTT); assay type: cell-based; conditions: HUH-6-clone5, 72 h
Outline: as §2

HuH7 = assay: In vitro cell proliferation assay (MTT); assay type: cell-based; conditions: Homo sapiens, Huh-7, 72 h
Outline: as §2

MDA-MB-231 = assay: In vitro cell proliferation assay (MTT); assay type: cell-based; conditions: Homo sapiens, MDA-MB-231, 72 h
Outline: as §2

BxPC-3 = assay: In vitro cell proliferation assay (MTT); assay type: cell-based; conditions: Homo sapiens, BXPC-3, 72 h
Outline: as §2

Caki-2 = assay: In vitro cell proliferation assay (MTT); assay type: cell-based; conditions: Homo sapiens, CAKI-2, 72 h
Outline: as §2

| inhibition at 0.1 µM (BRAF) [%] | inhibition at 0.1 µM (EGFR (ErbB1)) [%] | inhibition at 0.1 µM (EGFR (ErbB1) T790M L858R) [%] | inhibition at 0.1 µM (FGFR2) [%] | inhibition at 0.1 µM (KDR (VEGFR2)) [%] | inhibition at 0.1 µM (PDGFRA (PDGFR alpha)) [%] | inhibition at 0.1 µM (SRC) [%] | EC50 (A549) [µM] | EC50 (H1975) [µM] | EC50 (HT29) [µM] | EC50 (HeLa) [µM] | EC50 (HepG2) [µM] | EC50 (HuH6 Clone 5) [µM] | EC50 (HuH7) [µM] | EC50 (MDA-MB-231) [µM] | EC50 (BxPC-3) [µM] | SMILES | EC50 (HRMEC) [µM] | EC50 (HUVEC) [µM] | EC50 (HuCCT1) [µM] | EC50 (Caki-2) [µM] |
| --- | --- | --- | --- | --- | --- | --- | --- | --- | --- | --- | --- | --- | --- | --- | --- | --- | --- | --- | --- | --- |
| ≥ 50 | ≥ 50 | ≥ 50 | ≥ 50 | ≥ 50 | ≥ 50 | ≥ 50 | 0.1 to 1 | ≥ 1 | 0.1 to 1 | 0.1 to 1 | 0.1 to 1 | ≥ 1 | 0.1 to 1 | 0.1 to 1 |  | COC(=O)c1cc2cc(NC(=O)c3cc(NC(=O)c4ccc(CN5CCN(C)CC5)c(C(F)(F)F)c4)ccc3C)cnc2[nH]1 [OR0744] | 0.1 to 1 | 0.1 to 1 | ≥ 1 |  |
|  |  |  |  |  |  |  |  |  |  |  |  |  |  |  | ≥ 1 | CCN(CC)CCNC(=O)c1c(C)[nH]c(/C=C2\C(=O)Nc3ccc(F)cc32)c1C [Sunitinib, reference compound] |  |  |  | ≥ 1 |
